According to the NIST ThermoML archive (doi:10.1021/acs.jced.7b00344):

Assay: xn = mol fraction of the nth substance listed
Conditions: 101.3 kPa, Liquid; for viscosity: Capillary tube (Ostwald / Ubbelohde) method; for mass density: Pycnometric method

CC(=O)CCCCl [1-chloro-4-pentanone] + CC(=O)C1CC1
Conditions	mass density, 303.15 K [kg/m3]	mass density, 313.15 K [kg/m3]	mass density, 323.15 K [kg/m3]	mass density, 333.15 K [kg/m3]	viscosity, 303.15 K [mPa·s]	viscosity, 313.15 K [mPa·s]	viscosity, 323.15 K [mPa·s]	viscosity, 333.15 K [mPa·s]
x2 = 0	1051.3	1041.1	1031.2	1020.8	1.582	1.318	1.078	0.9667
x2 = 0.0998	1039.1	1029.1	1019.4	1009.3	1.427	1.21	1.03	0.8933
x2 = 0.2009	1026.1	1016.3	1006.7	996.8	1.223	1.043	0.9043	0.7927
x2 = 0.3004	1012.5	1002.9	993.4	983.6	1.135	0.9766	0.8507	0.7484
x2 = 0.4002	998	988.5	979.1	969.5	1.07	0.9252	0.8063	0.7131
x2 = 0.4999	982.8	973.3	963.9	954.4	0.955	0.8296	0.7322	0.6517
x2 = 0.5999	966.5	957.1	947.7	938.3	0.8757	0.7715	0.6787	0.6086
x2 = 0.6999	948.9	939.7	930.4	921.1	0.839	0.7366	0.649	0.5818
x2 = 0.7999	930.2	921	911.7	902.6	0.7363	0.6493	0.5783	0.5207
x2 = 0.8999	910.5	901.1	891.6	882.4	0.7027	0.6216	0.5513	0.4968

CC(=O)C1CCOC1=O (stereo not given) [2-acetylbutyrolactone] + CC(=O)C1CC1
Conditions	mass density, 303.15 K [kg/m3]	mass density, 313.15 K [kg/m3]	mass density, 323.15 K [kg/m3]	mass density, 333.15 K [kg/m3]	viscosity, 303.15 K [mPa·s]	viscosity, 313.15 K [mPa·s]	viscosity, 323.15 K [mPa·s]	viscosity, 333.15 K [mPa·s]
x2 = 0	1185.7	1178.3	1168.9	1159.4	3.794	3.424	3.067	2.719
x2 = 0.0998	1161.9	1154.3	1144.9	1135.6	3.195	2.889	2.609	2.33
x2 = 0.2009	1136.2	1128.5	1119.1	1109.7	2.633	2.369	2.118	1.892
x2 = 0.3004	1109.7	1101.8	1092.3	1082.9	2.164	1.945	1.748	1.571
x2 = 0.4002	1081.9	1073.7	1064.2	1054.8	1.786	1.599	1.415	1.278
x2 = 0.4999	1052.8	1044.3	1034.8	1025.4	1.452	1.306	1.154	1.025
x2 = 0.5999	1022.5	1013.8	1004.2	994.8	1.198	1.054	0.9344	0.8398
x2 = 0.6999	991.1	982.1	972.4	963.1	0.9813	0.8642	0.778	0.6958
x2 = 0.7999	958.3	949.2	939.6	930.2	0.783	0.6912	0.639	0.5704
x2 = 0.8999	924.5	915.5	905.9	896.5	0.6546	0.5854	0.5436	0.4933
